Results from article PMC7343282, “Tissue Distribution of Several Series of Cationic Surfactants in Rainbow Trout (Oncorhynchus mykiss) Following Exposure via Water” (Environmental Science & Technology, 2020).

How the values were obtained:
[1] = tested on: rainbow trout (Oncorhynchus mykiss); assay: Apparent bioconcentration factor at end of 7-day exposure; format: in vivo; conditions: end of 7-day exposure, body burden including mucus
Protocol: Apparent BCFs (BCFapp) at the end of the 7-day exposure were calculated by dividing the surfactant body burden (including mucus) by the fish mass, and dividing this by the average measured concentration in water samples taken during the exposure phase. The BCFapp values ranged from 0.1 to 1260 (Table S18). Given the short exposure period, it is possible that the fish in this study had not approached steady state, in particular with respect to the distribution between water and internal tissues and between water and skin, and that the steady-state BCFs are higher. […] We note that some improvements in the methodology would be helpful, particularly with respect to the stability of the aqueous exposure concentration of the longest chain surfactants. Working with mixtures of analogue cationic surfactants allowed for consistent evaluation of differences in accumulation trends due to structural features.

[2] = tested on: rainbow trout (Oncorhynchus mykiss); assay: Surface area-normalized mucus-water and gill-water distribution coefficients; conditions: for Gill-water distribution coefficient (DG-W): from average concentrations in gills and water, calculated gill surface; for Mucus-water distribution coefficient (DMuc-W): from average concentrations in mucus and water
Protocol: For each mixture, the syringe pump was started in an aquarium containing no fish. After 16 h, to allow the concentrations to stabilize, 12 rainbow trout were added. After 7 d of exposure, the fish in the exposure aquaria as well as several unexposed (control) fish were sacrificed. Following stunning, blood was collected with a heparinized syringe from the caudal vein into a 2 mL Eppendorf tube. The fish were weighed and photographed, and the length was measured. The outer surface area of the fish was estimated from the fish weight according to O’Shea et al.[27] [drawing 1] 1
The gill surface area was estimated from the fish weight according to the equation specific for O. mykiss from a report by Hughes,[28] taken from ref ([29]) [drawing 2] 2
Because the mass of extracted mucus was not determined, the concentrations in mucus were normalized to the estimated fish’s total surface area (eq 1) excluding the head, which was not rinsed.
Surface area-normalized gill–water distribution coefficients (DG–W) were calculated from the average concentrations measured in gills and water, and a calculated gill surface based on rainbow trout specific scaling factors (eq 2). […] Unlike the skin, the gills were not rinsed with methanol, so the gill samples included gill mucus.

[3] = Membrane-water partition/distribution coefficient; conditions: extrapolated from data of Timmer and Droge (2017)
[4] = tested on: rainbow trout (Oncorhynchus mykiss); assay: Tissue concentrations in rainbow trout after 7 d exposure via water (two mixtures); format: in vivo
Protocol: (§1) The study was conducted with rainbow trout (Oncorhynchus mykiss) weighing between 98 and 165 g. The fish were purchased from Nordic trout Sweden AB and held in the aquaria facility prior to the experiment in February 2018. Ethical approval for the experiments was obtained from Stockholms djurförsöksetiska nämnd (decision 9967-2017). The experiments were conducted in 300 L fiberglass aquaria with a water renewal rate of 1.3 L min^–1 (MIX 1) and 1.45 L min^–1 (MIX 2). The water temperature was 10 °C and the pH 7.5. The water hardness was estimated to be 1.1 mM Ca^2+ based on information from the water supplier. The aquaria water was circulated through a filter of polyester wool at 800–1200 L h^–1 with an Eheim 2273 Pro 4+ pump. The outflow from the filter pump was placed above the water surface, providing for aeration. The lighting was dim and programmed on a 12 h light/12 h dark cycle. The fish were fed fish food pellets supplied by the fish farm at 1.0% of their body weight per day.
(§2) A solution of the test chemical mixture in methanol was infused continuously (3.5 and 3.8 μL min^–1 for MIX 1 and MIX 2, respectively) into the water inflow using a syringe pump. The intended concentrations of the chemicals in water ranged from 2.5 to 50 μg L^–1 (Table 1). They were selected with the help of modeled estimates of the BCF that were based on reported and extrapolated membrane water partition coefficients[7] and biotransformation rate constants predicted with quantitative structure activity relationships (QSARs)[24],[25] to parameterize the BIONIC model.[26] Based on these estimates, we selected an exposure concentration which would result in concentrations in fish that were clearly above the limit of quantification (LOQ) of the analytical method, while trying to keep the quantifiable exposure concentration as low as possible to minimize the risk of toxic effects and micelle formation (see comparison of intended concentrations with available toxicological data in Table S4).
(§3) The surface of the fish posterior of the gills was rinsed with 100% methanol to remove test chemical residues adsorbed to the outer surface of the skin and absorbed in the skin mucus. […] The fish were dissected and the liver, the kidney, the gills, and the remaining contents of the abdominal cavity were taken and weighed. Skin and muscle samples were prepared from the upper dorsal region on semi-frozen fish after the methanol rinse had removed the mucus. The main part of the subcutaneous fat tissue was included in the muscle samples rather than in the skin samples. All samples were stored frozen at −20 °C until further analysis.
(§4) For 6 fish from each aquarium and 3 control fish, samples of muscle, skin, liver, and gills were homogenized in a bullet blender (muscle and liver) (MiniG, SPEXsamplePrep) or in a cryo-mill (skin and gill) (Mixer mill cryomill, Retsch GmbH). A sub-sample of 0.5–1.2 g of the homogenate was extracted twice in methanol (4 mL, 50 °C, ultra-sound, 60 min), employing centrifugation at 4000 rpm for phase separation. Further information on the extraction efficiency of this method can be found in the Supporting Information (Table S5 and accompanying text). Isotope labeled standards of Q10 (D21), Q14 (D29), and P16 (D33) were added to a portion of the extract corresponding to 12–75 mg of the sample. The extract volume was adjusted to 3 mL with methanol and then cleaned up on a weak cationic exchange SPE column (WCX, 60 mg, 30 μm particle size, waters). Solvent elution was performed by gravity flow. The column was conditioned with 2 mL of methanol, followed by 2 mL of Milli-Q water adjusted to pH 7 with ammonium hydroxide to activate the ion exchange. The sample extract was loaded onto the column, and it was subsequently rinsed with 20 mL of methanol.

[5] = as above; format: in vivo, Oncorhynchus mykiss; conditions: rainbow trout (Oncorhynchus mykiss), in vivo
Protocol: as §1, §2, §3, §4

[6] = Table S2; cited from earlier work
[7] = rainbow trout (Oncorhynchus mykiss), in vivo, 7 d
[8] = rainbow trout (Oncorhynchus mykiss), in vivo, 7 d, pH 7.5
[9] = mean of exposed fish, Table S13
[10] = mean of exposed fish, Table S14
[11] = wet weight, mean of six fish (RSD %), 7 d exposure, Q10, Q14 below LOQ

CCCCCCCCCCCCCN [P13, tridecylamine]
Apparent bioconcentration factor (BCFapp) [1]: 490 L kg-1 wet weight
Gill-water distribution coefficient (DG-W) [2]: 62 mLcm-2
Mucus-water distribution coefficient (DMuc-W) [2]: 25 mL cm-2
Log KMW,C (membrane-water partition coefficient of the charged form), extrapolated [3]: 6.16
Concentration in gills [4, 7]: 17 800 (12) ng g^–1
Concentration in liver [4, 7]: 50 000 (26) ng g^–1
Concentration in skin [4, 7]: 2400 (19) ng g^–1
Concentration in blood [4, 8]: 540 (12) ng g^–1
Concentration in muscle [4, 8]: 530 (16) ng g^–1
Concentration in skin, per surface area [4, 8]: 195 ng cm-2
concentration at 7 d ([5]; Concentration in skin): 2160 ng/g
concentration at 7 d ([5]; pH 7.5, Concentration in blood): 495 ng/g
concentration at 7 d ([5]; pH 7.5, Concentration in gills): 16000 ng/g
concentration at 7 d ([5]; pH 7.5, Concentration in muscle): 451 ng/g
concentration at 7 d ([5]; pH 7.5, Concentration in skin): 2040 ng/g
pKa [6]: 10.5

CCCCCCCCCCCCCN(C)C [T13, N,N-dimethyltridecylamine]
Apparent bioconcentration factor (BCFapp) [1]: 510 L kg-1 wet weight
Gill-water distribution coefficient (DG-W) [2]: 58 mLcm-2
Mucus-water distribution coefficient (DMuc-W) [2]: 22 mL cm-2
Log KMW,C (membrane-water partition coefficient of the charged form), extrapolated [3]: 5.88
Concentration in blood ([4]; exposed fish #1): 890 ng/g
Concentration in gills ([4]; exposed fish #1): 9077 ng/g
Concentration in gills, surface area-normalized ([4]; exposed fish #1): 140 ng cm-2
Concentration in liver ([4]; exposed fish #1): 6570 ng/g
Concentration in mucus ([4]; exposed fish #1): 57 ng cm-2
Concentration in muscle ([4]; exposed fish #1): 580 ng/g
Concentration in skin ([4]; exposed fish #1): 1879 ng/g
Concentration in skin, per surface area ([4]; exposed fish #1): 89 ng cm-2
Concentration in blood ([4]; exposed fish #2): 816 ng/g
Concentration in gills ([4]; exposed fish #2): 9391 ng/g
Concentration in gills, surface area-normalized ([4]; exposed fish #2): 150 ng cm-2
Concentration in liver ([4]; exposed fish #2): 8202 ng/g
Concentration in mucus ([4]; exposed fish #2): 59 ng cm-2
Concentration in muscle ([4]; exposed fish #2): 593 ng/g
Concentration in skin ([4]; exposed fish #2): 1877 ng/g
Concentration in skin, per surface area ([4]; exposed fish #2): 160 ng cm-2
Concentration in blood ([4]; exposed fish #3): 1018 ng/g
Concentration in liver ([4]; exposed fish #3): 13696 ng/g
Concentration in mucus ([4]; exposed fish #3): 52 ng cm-2
Concentration in muscle ([4]; exposed fish #3): 601 ng/g
Concentration in skin ([4]; exposed fish #3): 2115 ng/g
Concentration in skin, per surface area ([4]; exposed fish #3): 150 ng cm-2
Concentration in blood ([4]; exposed fish #4): 858 ng/g
Concentration in gills ([4]; exposed fish #4): 9586 ng/g
Concentration in gills, surface area-normalized ([4]; exposed fish #4): 178 ng cm-2
Concentration in liver ([4]; exposed fish #4): 20532 ng/g
Concentration in mucus ([4]; exposed fish #4): 63 ng cm-2
Concentration in muscle ([4]; exposed fish #4): 882 ng/g
Concentration in skin ([4]; exposed fish #4): 2718 ng/g
Concentration in skin, per surface area ([4]; exposed fish #4): 154 ng cm-2
Concentration in blood ([4]; exposed fish #5): 795 ng/g
Concentration in gills ([4]; exposed fish #5): 11785 ng/g
Concentration in gills, surface area-normalized ([4]; exposed fish #5): 209 ng cm-2
Concentration in liver ([4]; exposed fish #5): 12097 ng/g
Concentration in mucus ([4]; exposed fish #5): 70 ng cm-2
Concentration in muscle ([4]; exposed fish #5): 767 ng/g
Concentration in skin ([4]; exposed fish #5): 1738 ng/g
Concentration in skin, per surface area ([4]; exposed fish #5): 154 ng cm-2
Concentration in blood ([4]; exposed fish #6): 1205 ng/g
Concentration in gills ([4]; exposed fish #6): 11130 ng/g
Concentration in gills, surface area-normalized ([4]; exposed fish #6): 148 ng cm-2
Concentration in liver ([4]; exposed fish #6): 9499 ng/g
Concentration in mucus ([4]; exposed fish #6): 70 ng cm-2
Concentration in muscle ([4]; exposed fish #6): 606 ng/g
Concentration in skin ([4]; exposed fish #6): 2209 ng/g
Concentration in skin, per surface area ([4]; exposed fish #6): 162 ng cm-2
Concentration in blood ([4]; mean of exposed fish, Table S10): 930 ng/g
Concentration in muscle ([4]; mean of exposed fish, Table S11): 672 ng/g
Concentration in liver ([4]; mean of exposed fish, Table S12): 11766 ng/g
Concentration in gills [4, 9]: 10194 ng/g
Concentration in gills, surface area-normalized [4, 9]: 165 ng cm-2
Concentration in skin [4, 10]: 2089 ng/g
Concentration in skin, per surface area [4, 10]: 145 ng cm-2
Concentration in mucus ([4]; mean of exposed fish, Table S15): 62 ng cm-2
Concentration in mucus ([4]; methanol rinse normalized to fish surface area, mean of six fish (RSD %)): 62 (9) ng cm^–2
Concentration in blood ([4]; wet weight, mean of six fish (RSD % in brackets), 7 d exposure, Q10 below LOQ): 930 (17) ng g^–1
Concentration in muscle [4, 11]: 670 (19) ng g^–1
Concentration in skin [4, 11]: 2100 (17) ng g^–1
pKa [6]: 9.5
